# pEC50: −log10 of the molar value. Where two headings read alike, the source gives them in different places.
# Biological target: CFTR (Homo sapiens, UniProt P13569)
# Assay: Membrane Potential Dye, Enteroid Assay A
# Format: cell-based
# Conditions: for pEC50: read-out: Ent. A EC50
# Procedure: Base medium (ADF+++) consisted of Advanced DMEM/Ham's F12, 2 mM Glutamax, 10 mM HEPES, […] penicillin/streptomycin.
# Bath 1 Buffer consisted of 1 mM MgCl2, 160 mM NaCl, 4.5 mM KCl, 10 mM HEPES, 10 mM Glucose, 2 mM CaCl2).
# Chloride Free Buffer consisted of 1 mM Magnesium Gluconate, 2 mM Calcium Gluconate, 4.5 mM Potassium Gluconate, 160 mM Sodium Gluconate, 10 mM HEPES, 10 mM Glucose.
# Bath 1 Dye Solution consisted of Bath 1 Buffer, 0.04% Pluronic F127, 20 μM Methyl Oxonol, 30 μM CaCCinh-A01, 30 μM Chicago Sky Blue.
# Chloride Free Dye Solution consisted of Chloride Free Buffer, 0.04% Pluronic F127, 20 μM Methyl Oxonol, 30 μM CaCCinh-A01, 30 μM Chicago Sky Blue.
# 3. Enteroid Cell Harvesting and Seeding
# Cells were recovered in cell recovery solution, collected by centrifugation at 650 rpm for 5 min at 4° C., resuspended in TryPLE and incubated for 5 min at 37° C. Cells were then collected by centrifugation at 650 rpm for 5 min at 4° C. and resuspended in IEMM containing 10 μM ROCK inhibitor (RI).
# 4. Membrane Potential Dye, Enteroid Assay A
# Briefly, cells were washed 5 times in Bath 1 Buffer. Bath 1 Dye Solution was added, and the cells were incubated for 25 min at room temperature. Following dye incubation, cells were washed 3 times in Chloride Free Dye Solution. Chloride transport was initiated by addition of Chloride Free Dye Stimulation Solution and the fluorescence signal was read for 15 min. […] Chloride transport was then expressed as a percentage of the chloride transport following treatment with 3 μM N-[(6-amino-2-pyridyl)sulfonyl]-6-(3-fluoro-5-isobutoxy-phenyl)-2-[(4S)-2,2,4-trimethylpyrrolidin-1-yl]pyridine-3-carboxamide, 3 μM (R)-1-(2,2-difluorobenzo[d][1,3]dioxol-5-yl)-N-(1-(2,3-dihydroxypropyl)-6-fluoro-2-(1-hydroxy-2-methylpropan-2-yl)-1H-indol-5-yl)cyclopropanecarboxamide and 300 nM acute N-[2,4-bis(1,1-dimethylethyl)-5-hydroxyphenyl]-1,4-dihydro-4-oxoquinoline-3-carboxamide triple combination control (% Activity).
# CFTR, sequence (P13569 with tags, fused parts or gaps DEL508-508): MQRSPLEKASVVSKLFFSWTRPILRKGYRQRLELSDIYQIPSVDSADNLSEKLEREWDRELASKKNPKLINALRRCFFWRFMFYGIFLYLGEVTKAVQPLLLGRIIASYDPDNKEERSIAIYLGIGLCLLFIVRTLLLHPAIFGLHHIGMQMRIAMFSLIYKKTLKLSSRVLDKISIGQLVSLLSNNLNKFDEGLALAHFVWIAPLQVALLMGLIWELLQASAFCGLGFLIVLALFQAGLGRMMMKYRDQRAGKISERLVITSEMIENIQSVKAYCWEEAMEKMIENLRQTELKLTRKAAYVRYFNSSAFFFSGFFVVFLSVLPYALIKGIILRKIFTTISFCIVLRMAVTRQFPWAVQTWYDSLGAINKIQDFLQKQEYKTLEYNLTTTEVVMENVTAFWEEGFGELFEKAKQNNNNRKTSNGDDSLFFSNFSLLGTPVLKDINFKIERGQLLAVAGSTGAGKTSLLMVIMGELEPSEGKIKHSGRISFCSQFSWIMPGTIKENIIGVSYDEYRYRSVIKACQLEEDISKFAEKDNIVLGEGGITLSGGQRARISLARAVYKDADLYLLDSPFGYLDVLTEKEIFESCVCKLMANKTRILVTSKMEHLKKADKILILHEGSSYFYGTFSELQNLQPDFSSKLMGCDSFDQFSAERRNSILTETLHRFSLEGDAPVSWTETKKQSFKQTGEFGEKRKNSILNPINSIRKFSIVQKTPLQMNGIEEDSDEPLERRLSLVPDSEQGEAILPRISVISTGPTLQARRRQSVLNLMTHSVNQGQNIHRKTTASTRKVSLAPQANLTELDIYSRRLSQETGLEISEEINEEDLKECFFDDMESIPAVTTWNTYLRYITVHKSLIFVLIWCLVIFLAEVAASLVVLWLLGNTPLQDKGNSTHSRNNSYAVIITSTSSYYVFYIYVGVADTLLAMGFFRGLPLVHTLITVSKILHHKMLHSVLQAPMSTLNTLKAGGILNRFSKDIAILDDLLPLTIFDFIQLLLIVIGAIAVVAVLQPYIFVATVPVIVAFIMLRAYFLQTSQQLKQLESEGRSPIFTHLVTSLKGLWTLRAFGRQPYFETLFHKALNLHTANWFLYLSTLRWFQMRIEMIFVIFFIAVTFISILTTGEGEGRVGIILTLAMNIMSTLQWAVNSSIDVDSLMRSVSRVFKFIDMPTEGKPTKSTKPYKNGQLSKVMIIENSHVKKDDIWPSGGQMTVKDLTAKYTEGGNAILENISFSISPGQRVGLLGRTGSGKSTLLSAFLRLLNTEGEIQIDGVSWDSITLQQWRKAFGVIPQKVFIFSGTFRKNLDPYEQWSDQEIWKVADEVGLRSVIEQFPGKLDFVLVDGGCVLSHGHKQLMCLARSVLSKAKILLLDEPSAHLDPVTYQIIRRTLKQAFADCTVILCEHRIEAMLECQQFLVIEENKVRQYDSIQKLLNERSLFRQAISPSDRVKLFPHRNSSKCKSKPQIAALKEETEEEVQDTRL
Structure (SMILES),Ent. A Max Activity (Table 8),Ent. A Max Activity (Table 9),pEC50 (Table 9),other results
"CC(C)C[C@@H]1COc2cc(-c3c(C(C)C)cccc3C(C)C)nc(n2)NS(=O)(=O)c2cccc(c2)C(=O)N1 [Compound 99, (11R)-6-(2,6-diisopropylphenyl)-11-isobutyl-2,2-dioxo-9-oxa-2λ^6-thia-3,5,12,19-tetrazatricyclo[12.3.1.14,8]nonadeca-1(18),4,6,8(19),14,16-hexaen-13-one]",+++ (+++ is >60%),,,pEC50 (Table 8): > 6.00
"Cc1cccc(C)c1-c1cc2nc(n1)NS(=O)(=O)c1cccc(c1)C(=O)NCC(c1ccc(C3CCC3)cc1)O2 (stereo not drawn) [Compound 12, 10-(4-Cyclobutylphenyl)-6-(2,6-dimethylphenyl)-2,2-dioxo-9-oxa-2λ^6-thia-3,5,12,19-tetrazatricyclo[12.3.1.14,8]nonadeca-1(18),4(19),5,7,14,16-hexaen-13-one]",,+++ (+++ is >60%),> 6.00,
"Cc1cccc(C)c1-c1cc2nc(n1)NS(=O)(=O)c1cccc(c1)C(=O)N[C@@H](CC13CC4CC(CC(C4)C1)C3)CO2 (single isomer, unassigned) [Compound 111, 11-(1-adamantylmethyl)-6-(2,6-dimethylphenyl)-2,2-dioxo-9-oxa-2λ^6-thia-3,5,12,19-tetrazatricyclo[12.3.1.14,8]nonadeca-1(18),4(19),5,7,14,16-hexaen-13-one]",,++ (++ is 30-60%),> 6.00,
CCC(CC)(CC)c1ccc([C@@H]2CNC(=O)c3cccc(c3)S(=O)(=O)Nc3nc(cc(-c4c(C)cccc4C)n3)O2)cc1 [Compound 258],,+++ (+++ is >60%),> 6.00,
Cc1cccc(C)c1-c1cc2nc(n1)NS(=O)(=O)c1cccc(c1)C(=O)NCC1(CCN(CCc3ccccc3)CC1)CO2 [Compound 444],,,,Ent. A Max Activity (Enteroid Assay A): ++ (++ is 30-60%); pEC50 (Enteroid Assay A): 4.52 to 5.52
Cc1cccc(C)c1-c1cc2nc(n1)NS(=O)(=O)c1cccc(c1)C(=O)NCC(c1ccc3c(c1)C(C)(C)CCC3(C)C)O2 (stereo not drawn) [Compound 117],+++ (+++ is >60%),,,pEC50 (Table 8): > 6.00
Cc1cccc(C)c1-c1cc2nc(n1)NS(=O)(=O)c1cccc(c1)C(=O)NC1CCCC[C@@H]1O2 (stereo in doubt) [Compound 485],,,,pEC50 (Enteroid Assay A): 5.52 to 6.00
"Cc1cccc(C)c1-c1cc2nc(n1)NS(=O)(=O)c1cccc(c1)C(=O)NCC(c1ccc(C3CCC3)cc1)O2 (single isomer, unassigned) [Compound 14, 10-(4-cyclobutylphenyl)-6-(2,6-dimethylphenyl)-2,2-dioxo-9-oxa-2λ^6-thia-3,5,12,19-tetrazatricyclo[12.3.1.14,8]nonadeca-1(18),4(19),5,7,14,16-hexaen-13-one]",,+++ (+++ is >60%),> 6.00,
"Cc1cccc(C)c1-c1cc2nc(n1)NS(=O)(=O)c1cccc(c1)C(=O)N[C@@H](CCC(C)(C)C)CO2 (single isomer, unassigned) [Compound 48]",+ (+ is <30%),,,pEC50 (Table 8): > 6.00
Cc1cccc(C)c1-c1cc2nc(n1)NS(=O)(=O)c1cccc(c1)C(=O)NCC(C1CCC(C)(C)CC1)O2 (stereo not drawn) [Compound 283],,+++ (+++ is >60%),> 6.00,
CC(C)C[C@@H]1COc2cc(-c3ccnn3C(C)C)nc(n2)NS(=O)(=O)c2cccc(c2)C(=O)N1 [Compound 341],,,,Ent. A Max Activity (Enteroid Assay A): ++ (++ is 30-60%)
Cc1cccc(C)c1-c1cc2nc(n1)NS(=O)(=O)c1cccc(c1)C(=O)NC1CC(CN(CCC3(C(F)(F)F)CC3)C1)O2 (stereo not drawn) [Compound 194],,,,pEC50 (Enteroid Assay A): 5.52 to 6.00
CCC(CC)(CC)c1ccc(C2CNC(=O)c3cccc(c3)S(=O)(=O)Nc3nc(cc(-c4c(C)cccc4C)n3)O2)cc1 (stereo not drawn) [Compound 266],,++ (++ is 30-60%),> 6.00,
"Cc1cccc(C)c1-c1cc2nc(n1)NS(=O)(=O)c1cccc(c1)C(=O)N[C@@H]1CN(Cc3ccccc3)CC[C@H]1O2 [Compound 61, (3R,8R)-6-Benzyl-20-(2,6-dimethylphenyl)-2-oxa-16λ^6-thia-6,9,17,19,22-pentaazatetracyclo[16.3.1.111,15.03,8]tricosa-1(21),11,13,15(23),18(22),19-hexaene-10,16,16-trione]",,+++ (+++ is >60%),> 6.00,
CCC[C@H]1NC(=O)c2cccc(c2)S(=O)(=O)Nc2nc(cc(-c3c(C)cccc3C)n2)O[C@H]1c1ccc(C(C)(C)C)cc1 [Compound 226],,+++ (+++ is >60%),> 6.00,
Cc1cccc(C)c1-c1cc2nc(n1)NS(=O)(=O)c1cccc(c1)C(=O)NCC(c1ccc(Cl)cc1)O2 (stereo not drawn) [Compound 251],+++ (+++ is >60%),,,pEC50 (Table 8): > 6.00
COc1ccccc1C1CNC(=O)c2cccc(c2)S(=O)(=O)Nc2nc(cc(-c3c(C)cccc3C)n2)O1 (stereo not drawn) [Compound 280],+++ (+++ is >60%),,,pEC50 (Table 8): > 6.00
CC(C)C[C@@H]1COc2cc(-c3ccccc3CC(C)(C)C)nc(n2)NS(=O)(=O)c2cccc(c2)C(=O)N1 [Compound 332],,,,Ent. A Max Activity (Enteroid Assay A): ++ (++ is 30-60%); pEC50 (Enteroid Assay A): > 6.00
"Cc1cccc(C)c1-c1cc2nc(n1)NS(=O)(=O)c1cccc(c1)C(=O)NCC(c1ccc(Br)cc1)O2 (single isomer, unassigned) [Compound 19, 10-(4-bromophenyl)-6-(2,6-dimethylphenyl)-2,2-dioxo-9-oxa-2λ^6-thia-3,5,12,19-tetrazatricyclo[12.3.1.14,8]nonadeca-1(18),4(19),5,7,14,16-hexaen-13-one]",+ (+ is <30%),,,
"Cc1cccc(C)c1-c1cc2nc(n1)NS(=O)(=O)[C@H]1CC[C@H]1C(=O)N[C@H](CC(C)C)CO2 (single isomer, unassigned) [Compound 71]",,+ (+ is <30%),,
Cc1cccc(C)c1-c1cc2nc(n1)NS(=O)(=O)c1cccc(c1)C(=O)NC[C@@H](c1ccccn1)O2 [Compound 233],+ (+ is <30%),,,
Cc1cccc(C)c1-c1cc2nc(n1)NS(=O)(=O)c1cccc(c1)C(=O)NCC1(CCN(C(=O)C3CSCCN3C(=O)OC(C)(C)C)CC1)CO2 (stereo not drawn) [Compound 471],,,,Ent. A Max Activity (Enteroid Assay A): ++ (++ is 30-60%)
"Cc1cccc(C)c1-c1cc2nc(n1)NS(=O)(=O)c1cccc(c1)C(=O)NCC(c1ccc(P(C)(C)=O)cc1)O2 (stereo not drawn) [Compound 21, 6-(2,6-Dimethylphenyl)-10-(4-dimethylphosphorylphenyl)-2,2-dioxo-9-oxa-2λ^6-thia-3,5,12,19-tetrazatricyclo[12.3.1.14,8]nonadeca-1(18),4(19),5,7,14,16-hexaen-13-one]",+ (+ is <30%),,,
CC(C)COc1cccc(-c2cc3nc(n2)NS(=O)(=O)c2cccc(c2)C(=O)N[C@H](CC(C)C)CO3)c1 [Compound 331],,,,pEC50 (Enteroid Assay A): 5.52 to 6.00
CC(C)C[C@@H]1COc2cc(-c3ccccc3OCc3ccccc3)nc(n2)NS(=O)(=O)c2cccc(c2)C(=O)N1 [Compound 393],,+++ (+++ is >60%),> 6.00,
Cc1cccc(C)c1-c1cc2nc(n1)NS(=O)(=O)c1cc(cc(C3CC3)c1)C(=O)N[C@H](CC(C)C)CO2 [Compound 136],+ (+ is <30%),,,

# — patent US20230382924A1, “MODULATORS OF CYSTIC FIBROSIS TRANSMEMBRANE CONDUCTANCE REGULATOR” (VERTEX PHARMACEUTICALS INCORPORATED, priority 2020, published 2023)
